In article PMC13421293 (Thrombosis and Haemostasis, 2025):
One block for each compound: values may come before it.

Tests used:
platelet reactivity = experiment: Platelet reactivity by multiple electrode aggregometry (Multiplate) in unstable angina patients
[1] = Concentrations of ticagrelor and active metabolite AR-C124910XX by LC-MS in unstable angina patients; conditions: for AUC: AUC TPC, total exposure to ticagrelor, area under the ticagrelor plasma concentration curve, 0–360 min; for concentration at 15 min: 15 min post ticagrelor LD 180 mg; for concentration at 30 min: 30 min post ticagrelor LD 180 mg; for concentration at 45 min: 45 min post ticagrelor LD 180 mg; for concentration at 60 min: 60 min post ticagrelor LD 180 mg; for concentration at 120 min: 120 min post ticagrelor LD 180 mg; for concentration at 240 min: 240 min post ticagrelor LD 180 mg; for concentration at 360 min: 360 min post ticagrelor LD 180 mg
canine platelet = tested on: canine platelet; design: method as in PMID 5554584; conditions: commonly used concentrations; cited from earlier work
[2] = 15 min post ticagrelor LD 180 mg, MEA
[3] = 30 min post ticagrelor LD 180 mg, MEA
[4] = 45 min post ticagrelor LD 180 mg, MEA
[5] = 60 min post ticagrelor LD 180 mg, MEA
[6] = 120 min post ticagrelor LD 180 mg, MEA
[7] = 180 min post ticagrelor LD 180 mg, MEA
[8] = 240 min post ticagrelor LD 180 mg, MEA
[9] = time to reach low platelet reactivity after ticagrelor LD, MEA
[10] = 0–360 min post ticagrelor LD 180 mg
[11] = human, plasma, oral, 180 mg, Ticagrelor plasma concentration, Mean ± SD
[12] = human, plasma, oral, 180 mg, Ticagrelor plasma concentration, Median (Q1–Q3)

Ticagrelor maximum concentration, Mean ± SD [1, 10]: 699 ± 257 ng/mL
Ticagrelor maximum concentration, Median (Q1–Q3) [1, 10]: 680 (514–800) ng/mL
Ticagrelor plasma concentration, Mean ± SD ([1]; baseline): 0 ng/mL
Ticagrelor plasma concentration, Median (Q1–Q3) ([1]; baseline): 0 ng/mL
AUC ([1]; human, plasma, oral, 180 mg, Mean ± SD): 2310 ng·h/mL
AUC ([1]; human, plasma, oral, 180 mg, Median (Q1–Q3)): 2070 ng·h/mL
concentration at 15 min [1, 11]: 20 ± 29 ng/mL
concentration at 30 min [1, 11]: 171 ± 237 ng/mL
concentration at 45 min [1, 11]: 329 ± 353 ng/mL
concentration at 60 min [1, 11]: 464 ± 379 ng/mL
concentration at 120 min [1, 11]: 533 ± 243 ng/mL
concentration at 240 min [1, 11]: 404 ± 136 ng/mL
concentration at 360 min [1, 11]: 291 ± 94 ng/mL
concentration at 15 min [1, 12]: 13 ng/mL
concentration at 30 min [1, 12]: 69 ng/mL
concentration at 45 min [1, 12]: 210 ng/mL
concentration at 60 min [1, 12]: 316 ng/mL
concentration at 120 min [1, 12]: 569 ng/mL
concentration at 180 min ([1]; human, plasma, oral, 180 mg, Ticagrelor plasma concentration, Median (Q1–Q3), 180 min post ticagrelor LD 180 mg): 453 ng/mL
concentration at 240 min [1, 12]: 402 ng/mL
concentration at 360 min [1, 12]: 290 ng/mL
SMILES: CCCSc1nc(N[C@@H]2C[C@H]2c2ccc(F)c(F)c2)c2nnn([C@@H]3C[C@H](OCCO)[C@@H](O)[C@H]3O)c2n1 [Ticagrelor, ticagrelor]
AUC 15 (platelet reactivity), Mean ± SD (platelet reactivity; [2]): 66.08 ± 26.54 U
AUC 15 (platelet reactivity), Median (Q1–Q3) (platelet reactivity; [2]): 66 (48–87) U
AUC 30 (platelet reactivity), Mean ± SD (platelet reactivity; [3]): 47.76 ± 27.79 U
AUC 30 (platelet reactivity), Median (Q1–Q3) (platelet reactivity; [3]): 36 (27–66) U
AUC 45 (platelet reactivity), Mean ± SD (platelet reactivity; [4]): 34.56 ± 22.95 U
AUC 45 (platelet reactivity), Median (Q1–Q3) (platelet reactivity; [4]): 28 (17–36) U
AUC 60 (platelet reactivity), Mean ± SD (platelet reactivity; [5]): 26.64 ± 17.75 U
AUC 60 (platelet reactivity), Median (Q1–Q3) (platelet reactivity; [5]): 26 (16–32) U
AUC 120 (platelet reactivity), Mean ± SD (platelet reactivity; [6]): 21.6 ± 13.37 U
AUC 120 (platelet reactivity), Median (Q1–Q3) (platelet reactivity; [6]): 21 (17–25) U
AUC 180 (platelet reactivity), Mean ± SD (platelet reactivity; [7]): 21.32 ± 12.03 U
AUC 180 (platelet reactivity), Median (Q1–Q3) (platelet reactivity; [7]): 22 (13–28) U
AUC 240 (platelet reactivity), Mean ± SD (platelet reactivity; [8]): 23.76 ± 16.86 U
AUC 240 (platelet reactivity), Median (Q1–Q3) (platelet reactivity; [8]): 22 (17–26) U
AUC 360 (platelet reactivity), Median (Q1–Q3) (platelet reactivity; 360 min post ticagrelor LD 180 mg, MEA): 19 (12–25) U
AUC 0 (platelet reactivity), Median (Q1–Q3) (platelet reactivity; baseline, MEA, UA patients): 73 (54–95) U
AUC 0 (platelet reactivity, area under the aggregation curve), Mean ± SD (platelet reactivity; baseline, MEA, UA patients): 76.36 ± 21.82 U
Time to AUC < 46 U, Mean ± SD (platelet reactivity; [9]): 43.8 ± 46.42
Time to AUC < 46 U, Median (Q1–Q3) (platelet reactivity; [9]): 30 (30–45)

SMILES: CCOCC [diethyl ether]
ADP-induced canine platelet aggregation (canine platelet): significant reduction

SMILES: FC(F)(F)C(Cl)Br (stereo not drawn) [halothane]
ADP-induced canine platelet aggregation (canine platelet): significant reduction

SMILES: COC(F)(F)C(Cl)Cl [methoxyflurane]
effect on platelet reactivity (platelet reactivity; methoxyflurane added to ticagrelor LD vs ticagrelor alone, MEA AUC): inhibitory effect
ADP-induced canine platelet aggregation (canine platelet): significant reduction

SMILES: [N-]=[N+]=O [nitrous oxide]
ADP-induced canine platelet aggregation (canine platelet): significant reduction
